The values below come from PubChem BioAssay (NCI).

Each structure is given as a SMILES string.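 48-hour exposure; five concentrations; linearly interpolated endpoints. The concentration for 50% growth inhibition is given as GI50. At the TGI there is no net growth.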

Test systems include SK-MEL-28 melanoma; OVCAR-3 ovarian; CCRF-CEM leukemia; OVCAR-5 ovarian; K-562 leukemia; A498 renal; TK-10 renal; RXF 393 renal; SW-620 colon; HL-60(TB) leukemia.
Experiment in all cases: NCI anticancer screen, dose series, 48 h

Turning to `Cc1cc2nc3c(C(OC4OC(CO)C(O)C(O)C4O)C(O)CO)nn(-c4ccc(F)cc4)c3nc2cc1C` (stereo not drawn), the TGI in the assay on SK-MEL-28 melanoma, with OVCAR-3 ovarian, with CCRF-CEM leukemia, in the assay with OVCAR-5 ovarian, in the assay on K-562 leukemia and in the assay with A498 renal was above 100 µM in each case. In addition, the TGI in the assay with TK-10 renal and with RXF 393 renal was above 100 µM throughout.

Take `COc1ccc(/C(C#N)=C2/O/C(=N/N)C(c3ccc(OC)c(OC)c3)C2=O)cc1OC` (stereo not drawn): the TGI in the assay on SW-620 colon, in the assay with SK-MEL-28 melanoma, in the assay with OVCAR-3 ovarian, in the assay with CCRF-CEM leukemia, with HL-60(TB) leukemia and with K-562 leukemia was above 100 µM in each case. Besides, in the assay with TK-10 renal, the TGI was above 100 µM.

On to `NC(=O)C1C(=O)Oc2cccnc21` (stereo not drawn), for which the TGI in the assay with SW-620 colon, in the assay with SK-MEL-28 melanoma, in the assay on OVCAR-3 ovarian, in the assay on CCRF-CEM leukemia, in the assay on K-562 leukemia and in the assay with TK-10 renal was above 100 µM each time. Moreover, the TGI in the assay on RXF 393 renal was above 100 µM.

Regarding `COc1ccc(C2C(C(=O)O)=C(COC(C)=O)Oc3cc4c(cc32)OCO4)c(OC)c1` (stereo not drawn), the TGI with SW-620 colon, in the assay on SK-MEL-28 melanoma, with OVCAR-3 ovarian, with CCRF-CEM leukemia, with HL-60(TB) leukemia and in the assay on K-562 leukemia was above 100 µM each time. Besides, the TGI with TK-10 renal and in the assay with RXF 393 renal was above 100 µM each time.

As to `c1ccc2c(c1)n1nnnc1c1nnnn21`, the TGI in the assay on SW-620 colon, in the assay on SK-MEL-28 melanoma, in the assay with OVCAR-3 ovarian, in the assay on CCRF-CEM leukemia, with OVCAR-5 ovarian and with K-562 leukemia was above 100 µM in each case. Also, the TGI in the assay with A498 renal, in the assay with TK-10 renal and with RXF 393 renal was above 100 µM throughout.

As for `CCOC(=O)C(=O)Nc1nc2ccc(OC)cc2s1`, the TGI in the assay on SW-620 colon, with SK-MEL-28 melanoma, in the assay with OVCAR-3 ovarian, in the assay with CCRF-CEM leukemia, in the assay with HL-60(TB) leukemia and with OVCAR-5 ovarian was above 100 µM each time. The TGI with K-562 leukemia, with A498 renal and in the assay on TK-10 renal was above 100 µM in each case.

On to `CNC(=O)N(CCCCC(NC(C)=O)C(=O)NCc1ccccc1)Cc1ccccc1` (stereo not drawn), for which the TGI in the assay with SW-620 colon, in the assay on SK-MEL-28 melanoma, in the assay on OVCAR-3 ovarian, in the assay on CCRF-CEM leukemia, with OVCAR-5 ovarian and in the assay with K-562 leukemia was above 100 µM throughout. Besides, the TGI in the assay on A498 renal, with TK-10 renal and with RXF 393 renal was above 100 µM in each case.

Consider `Nc1c([N+](=O)[O-])ncn1C1OC(CO)C(O)C1O` (stereo not drawn), for which the GI50 with SW-620 colon, with SK-MEL-28 melanoma, in the assay with OVCAR-3 ovarian, with CCRF-CEM leukemia, with OVCAR-5 ovarian and in the assay on K-562 leukemia was above 100 µM in each case. For the same compound, the GI50 with A498 renal, with TK-10 renal and in the assay on RXF 393 renal was above 100 µM each time. For the same compound, the TGI with SW-620 colon, with SK-MEL-28 melanoma, with OVCAR-3 ovarian, in the assay on CCRF-CEM leukemia, in the assay on OVCAR-5 ovarian and in the assay with K-562 leukemia was above 100 µM throughout. In addition, the TGI with A498 renal, with TK-10 renal and in the assay on RXF 393 renal was above 100 µM throughout.

With `Cc1cccc(NC(=O)CSc2nnc(-c3ccc(N=Cc4ccc(Cl)cc4)cc3)o2)c1`, the TGI with SW-620 colon, in the assay with SK-MEL-28 melanoma, in the assay with CCRF-CEM leukemia, in the assay with HL-60(TB) leukemia, in the assay with K-562 leukemia and in the assay with TK-10 renal was above 100 µM in each case. Further, in the assay on RXF 393 renal, the TGI is above 100 µM.

For `CC(=O)Nc1ccc2c(c1)[nH]c(=O)c1cc(Cl)ccc12`, the TGI was above 100 µM in the assay with SW-620 colon; above 100 µM in the assay with SK-MEL-28 melanoma; 13.4 µM in the assay with CCRF-CEM leukemia; above 100 µM with HL-60(TB) leukemia; above 100 µM in the assay with OVCAR-5 ovarian; above 100 µM with K-562 leukemia. Besides, the TGI in the assay with A498 renal is above 100 µM; in the assay on TK-10 renal, 60.4 µM.

Consider `CC1(C)N=C(N)N=C(N)N1c1ccc(CCCCCCc2ccc(S(=O)(=O)F)cc2)cc1`, for which the TGI was 4.44 µM in the assay on SW-620 colon; 37.7 µM with SK-MEL-28 melanoma; 32.4 µM in the assay with OVCAR-3 ovarian; above 37.3 µM in the assay with HL-60(TB) leukemia; 15 µM in the assay with OVCAR-5 ovarian; above 33.3 µM with K-562 leukemia. Further, the TGI with TK-10 renal is 15.9 µM; with RXF 393 renal it was above 33.1 µM.

Regarding `O=C(Nc1ccc(-n2cc(-c3ccncc3)c(-c3ccc(Cl)c(O)c3)n2)cc1)c1ccc(Cl)c(Cl)c1`, the GI50 was 4.42 µM in the assay with SW-620 colon; 2.94 µM in the assay on SK-MEL-28 melanoma; above 100 µM in the assay with OVCAR-3 ovarian; 4.52 µM in the assay on CCRF-CEM leukemia; 2.97 µM in the assay with HL-60(TB) leukemia; 10.2 µM in the assay with OVCAR-5 ovarian. Besides, the GI50 in the assay on K-562 leukemia is 1.32 µM; with A498 renal it was 35.7 µM; with TK-10 renal, above 100 µM. Further, the TGI with SW-620 colon is above 100 µM; in the assay with SK-MEL-28 melanoma, above 100 µM; in the assay on OVCAR-3 ovarian, above 100 µM; in the assay with CCRF-CEM leukemia it was above 100 µM; with HL-60(TB) leukemia, 6.35 µM; with OVCAR-5 ovarian, above 100 µM. Also, the TGI in the assay with K-562 leukemia, in the assay on A498 renal and with TK-10 renal was above 100 µM throughout.

Regarding `CCOc1ccc(N=Nc2c(-c3ccccc3)nn(C(=O)CC(=O)Nc3ccccc3Cl)c2-c2ccccc2)cc1`, the TGI with SW-620 colon, with SK-MEL-28 melanoma, in the assay on OVCAR-3 ovarian, in the assay on CCRF-CEM leukemia, in the assay on HL-60(TB) leukemia and in the assay on OVCAR-5 ovarian was above 100 µM in each case. For the same compound, the TGI in the assay on K-562 leukemia, in the assay with TK-10 renal and with RXF 393 renal was above 100 µM throughout.

Turning to `COc1cc(COC(=O)N(C)[C@@H](Cc2ccccc2)C(=O)O)c([N+](=O)[O-])cc1OC`, the TGI in the assay with SW-620 colon, with OVCAR-3 ovarian, with CCRF-CEM leukemia, in the assay with HL-60(TB) leukemia, in the assay with OVCAR-5 ovarian and in the assay on K-562 leukemia was above 100 µM each time.

Take `CC[C@]1(O)C[C@@H]2CN(CCc3c([nH]c4ccccc34)[C@@](C(=O)OC)(c3cc4c(cc3OC)N(C)[C@H]3[C@@](O)(C(=O)OC)[C@H](OC(=O)CCCBr)[C@]5(CC)C=CCN6CC[C@]43[C@@H]65)C2)C1`: the GI50 with SW-620 colon is below 0.0146 µM; in the assay with OVCAR-3 ovarian, below 0.01 µM; with CCRF-CEM leukemia, 0.0232 µM; with OVCAR-5 ovarian it was below 0.023 µM; with K-562 leukemia it was below 0.01 µM; in the assay with A498 renal, below 0.0114 µM. For the same compound, the GI50 in the assay on TK-10 renal is 2 µM; with RXF 393 renal, below 0.01 µM. Moreover, the TGI in the assay with SW-620 colon is above 100 µM; in the assay on OVCAR-3 ovarian it was below 0.0126 µM; in the assay with CCRF-CEM leukemia, above 100 µM; in the assay on OVCAR-5 ovarian, above 100 µM; in the assay with K-562 leukemia it was above 100 µM; in the assay with A498 renal, below 0.0258 µM. Besides, the TGI was above 100 µM in the assay on TK-10 renal and below 0.01 µM in the assay on RXF 393 renal.

For the compound `COc1cc2c(c(OC)c1OC)-c1ccc(SC)c(=O)cc1C(CC(=O)Oc1ccccc1F)C2` (stereo not drawn), the TGI with SW-620 colon is above 7.5 µM; in the assay on SK-MEL-28 melanoma, above 7.5 µM; with OVCAR-3 ovarian, 0.0272 µM; in the assay with CCRF-CEM leukemia, above 7.5 µM; in the assay on HL-60(TB) leukemia, 1.37 µM; in the assay on OVCAR-5 ovarian, above 7.5 µM. Further, the figures for the TGI with K-562 leukemia, with A498 renal and with TK-10 renal were above 7.5 µM, 6.77 µM and above 7.5 µM, respectively.

For `Cc1cn([C@H]2CN(O)C[C@@H](CO)O2)c(=O)[nH]c1=O`, the TGI in the assay on SW-620 colon, in the assay with SK-MEL-28 melanoma, with HL-60(TB) leukemia, in the assay with OVCAR-5 ovarian, with K-562 leukemia and in the assay with A498 renal was above 100 µM each time. The TGI with TK-10 renal and in the assay with RXF 393 renal was above 100 µM throughout.

With `Cc1cc(N(CCC#N)CCC#N)ccc1/C=C1N=C(/C=C\c2ccccc2)N(c2ccc(C(=O)O)cc2)C\1=O`, the TGI in the assay on SW-620 colon, in the assay on SK-MEL-28 melanoma, in the assay on OVCAR-3 ovarian, with CCRF-CEM leukemia, with HL-60(TB) leukemia and in the assay with OVCAR-5 ovarian was above 100 µM throughout. The TGI in the assay on K-562 leukemia, with A498 renal and with TK-10 renal was above 100 µM each time.

As to `O=C(CC/C(CC(=O)c1ccc(Cl)cc1)=N\O)Nc1cccc(Cl)c1`, the TGI in the assay on SW-620 colon, with SK-MEL-28 melanoma, in the assay with OVCAR-3 ovarian, in the assay on CCRF-CEM leukemia, with OVCAR-5 ovarian and with K-562 leukemia was above 100 µM each time. Further, the TGI in the assay on A498 renal and with TK-10 renal was above 100 µM throughout.

`Cc1ccc(-n2cc(/C(N)=N/O)c3ccccc3c2=O)cc1`: the TGI in the assay on SW-620 colon, in the assay with SK-MEL-28 melanoma, in the assay with OVCAR-3 ovarian, with CCRF-CEM leukemia, in the assay with HL-60(TB) leukemia and in the assay on K-562 leukemia was above 100 µM each time. The compound further showed a TGI in the assay with TK-10 renal above 100 µM.
